Laboratory results reported in PubChem BioAssay AID1919002 (Molecular Pharmacology Branch, DTP, NCI, 2023).

Test system: 743489-274-T-PDC complex spheroid growth
Experiment: Anticancer human tumor 743489-274-T-PDC patient-derived renal cell carcinoma cell line growth inhibition [AhR]
Settings: for IC50: curve of first compound; for viability, T/C: stronger effect = lower value
Method in brief: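 Agents were dosed in half-log steps down from roughly clinical Cmax, or from 10 microM where Cmax was unknown, alone and with AhR antagonists. Read-out: percent test/control growth of tumor spheroids containing HUVEC and MSC stromal cells.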

[1] = second compound 0.1 µM, first compound 0.0316 µM
[2] = second compound 0.1 µM, first compound 0.1 µM
[3] = second compound 0.1 µM, first compound 0.316 µM
[4] = second compound 0.1 µM, first compound 1 µM
[5] = second compound 0.316 µM, first compound 0.0316 µM
[6] = second compound 0.316 µM, first compound 0.1 µM
[7] = second compound 0.316 µM, first compound 0.316 µM
[8] = second compound 0.316 µM, first compound 1 µM
[9] = second compound 1 µM, first compound 0.0316 µM
[10] = second compound 1 µM, first compound 0.1 µM
[11] = second compound 1 µM, first compound 0.316 µM
[12] = second compound 1 µM, first compound 1 µM
[13] = second compound 3.16 µM, first compound 0.0316 µM
[14] = second compound 3.16 µM, first compound 0.1 µM
[15] = second compound 3.16 µM, first compound 0.316 µM
[16] = second compound 3.16 µM, first compound 1 µM
[17] = second compound 10 µM, first compound 0.0316 µM
[18] = second compound 10 µM, first compound 0.1 µM
[19] = second compound 10 µM, first compound 0.316 µM
[20] = second compound 10 µM, first compound 1 µM
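Further: spheroids exposed to agents for 7 days before readout.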
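Wherever viability, T/C is given: 100% = DMSO vehicle control wells.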

Nc1ccn(C2OC(CO)C(O)C2(F)F)c(=O)n1 (stereo not given) + Cc1cncc(-c2nc(NCCc3c[nH]c4ccccc34)c3ncn(C(C)C)c3n2)c1
IC50 (second compound 0.1 µM): > 10 µM | IC50 (second compound 0.316 µM): > 10 µM | IC50 (second compound 1 µM): > 10 µM | IC50 (second compound 3.16 µM): > 10 µM | IC50 (second compound 10 µM): > 10 µM | viability, T/C [1]: 83.1% | viability, T/C [2]: 76.7% | viability, T/C [3]: 72.1% | viability, T/C [4]: 65.2% | viability, T/C (second compound 0.1 µM, first compound 3.16 µM): 65.7% | viability, T/C (second compound 0.1 µM, first compound 10 µM): 67.9% | viability, T/C [5]: 87.1% | viability, T/C [6]: 73.2% | viability, T/C [7]: 71.9% | viability, T/C [8]: 62.3% | viability, T/C (second compound 0.316 µM, first compound 3.16 µM): 72.3% | viability, T/C (second compound 0.316 µM, first compound 10 µM): 63.4% | viability, T/C [9]: 85.6% | viability, T/C [10]: 90.8% | viability, T/C [11]: 74.7% | viability, T/C [12]: 64.8% | viability, T/C (second compound 1 µM, first compound 3.16 µM): 79.2% | viability, T/C (second compound 1 µM, first compound 10 µM): 68.9% | viability, T/C [13]: 104% | viability, T/C [14]: 93.8% | viability, T/C [15]: 77.3% | viability, T/C [16]: 62.3% | viability, T/C (second compound 3.16 µM, first compound 3.16 µM): 74.3% | viability, T/C (second compound 3.16 µM, first compound 10 µM): 67.1% | viability, T/C [17]: 138% | viability, T/C [18]: 100% | viability, T/C [19]: 74.2% | viability, T/C [20]: 84.2% | viability, T/C (second compound 10 µM, first compound 3.16 µM): 78.5% | viability, T/C (second compound 10 µM, first compound 10 µM): 96.8%

CC1COCCN1c1cc(-c2ccnn2C)c2ccnc(-c3ccn[nH]3)c2n1 (stereo not given) + Cc1ccccc1N=Nc1ccc(NC(=O)c2ccnn2C)c(C)c1
IC50 (second compound 0.1 µM): > 1 µM | IC50 (second compound 0.316 µM): > 1 µM | IC50 (second compound 1 µM): > 1 µM | IC50 (second compound 3.16 µM): > 1 µM | IC50 (second compound 10 µM): > 1 µM | viability, T/C (second compound 0.1 µM, first compound 0.00316 µM): 92.8% | viability, T/C (second compound 0.1 µM, first compound 0.01 µM): 94.4% | viability, T/C [1]: 93.9% | viability, T/C [2]: 95.9% | viability, T/C [3]: 88.5% | viability, T/C [4]: 78.4% | viability, T/C (second compound 0.316 µM, first compound 0.00316 µM): 89.7% | viability, T/C (second compound 0.316 µM, first compound 0.01 µM): 101% | viability, T/C [5]: 89.6% | viability, T/C [6]: 93.3% | viability, T/C [7]: 99.2% | viability, T/C [8]: 75.3% | viability, T/C (second compound 1 µM, first compound 0.00316 µM): 93.4% | viability, T/C (second compound 1 µM, first compound 0.01 µM): 98.5% | viability, T/C [9]: 92% | viability, T/C [10]: 86.5% | viability, T/C [11]: 88.2% | viability, T/C [12]: 68.1% | viability, T/C (second compound 3.16 µM, first compound 0.00316 µM): 87.6% | viability, T/C (second compound 3.16 µM, first compound 0.01 µM): 86.8% | viability, T/C [13]: 88% | viability, T/C [14]: 82.8% | viability, T/C [15]: 76.4% | viability, T/C [16]: 76.3% | viability, T/C (second compound 10 µM, first compound 0.00316 µM): 103% | viability, T/C (second compound 10 µM, first compound 0.01 µM): 94.9% | viability, T/C [17]: 96.2% | viability, T/C [18]: 84.9% | viability, T/C [19]: 73.5% | viability, T/C [20]: 58.6%

O=C(C=Cn1cnc(-c2cc(C(F)(F)F)cc(C(F)(F)F)c2)n1)NNc1cnccn1 + Cc1ccccc1N=Nc1ccc(NC(=O)c2ccnn2C)c(C)c1
IC50 (second compound 0.1 µM): > 3 µM | IC50 (second compound 0.316 µM): > 3 µM | IC50 (second compound 1 µM): > 3 µM | IC50 (second compound 3.16 µM): > 3 µM | IC50 (second compound 10 µM): > 3 µM | viability, T/C (second compound 0.1 µM, first compound 0.00949 µM): 106% | viability, T/C (second compound 0.1 µM, first compound 0.03 µM): 110% | viability, T/C (second compound 0.1 µM, first compound 0.0949 µM): 118% | viability, T/C (second compound 0.1 µM, first compound 0.3 µM): 140% | viability, T/C (second compound 0.1 µM, first compound 0.949 µM): 121% | viability, T/C (second compound 0.1 µM, first compound 3 µM): 104% | viability, T/C (second compound 0.316 µM, first compound 0.00949 µM): 105% | viability, T/C (second compound 0.316 µM, first compound 0.03 µM): 102% | viability, T/C (second compound 0.316 µM, first compound 0.0949 µM): 115% | viability, T/C (second compound 0.316 µM, first compound 0.3 µM): 133% | viability, T/C (second compound 0.316 µM, first compound 0.949 µM): 103% | viability, T/C (second compound 0.316 µM, first compound 3 µM): 94% | viability, T/C (second compound 1 µM, first compound 0.00949 µM): 97.8% | viability, T/C (second compound 1 µM, first compound 0.03 µM): 107% | viability, T/C (second compound 1 µM, first compound 0.0949 µM): 128% | viability, T/C (second compound 1 µM, first compound 0.3 µM): 140% | viability, T/C (second compound 1 µM, first compound 0.949 µM): 110% | viability, T/C (second compound 1 µM, first compound 3 µM): 97.1% | viability, T/C (second compound 3.16 µM, first compound 0.00949 µM): 102% | viability, T/C (second compound 3.16 µM, first compound 0.03 µM): 97.7% | viability, T/C (second compound 3.16 µM, first compound 0.0949 µM): 109% | viability, T/C (second compound 3.16 µM, first compound 0.3 µM): 127% | viability, T/C (second compound 3.16 µM, first compound 0.949 µM): 95.4% | viability, T/C (second compound 3.16 µM, first compound 3 µM): 82.5% | viability, T/C (second compound 10 µM, first compound 0.00949 µM): 90.8% | viability, T/C (second compound 10 µM, first compound 0.03 µM): 85.8% | viability, T/C (second compound 10 µM, first compound 0.0949 µM): 99.7% | viability, T/C (second compound 10 µM, first compound 0.3 µM): 128% | viability, T/C (second compound 10 µM, first compound 0.949 µM): 101% | viability, T/C (second compound 10 µM, first compound 3 µM): 79.2%
